From patent US20140050778A1, “NUCLEIC ACID BINDING COMPOUNDS, METHODS OF MAKING, AND USE THEREOF” (UNIVERSITY OF ROCHESTER, priority 2010, published 2014)
“Also recorded” adds a separate entry of the source.

What was measured:
(CUG)10 RNA = assay: Fluorescence titration (benzo[g]quinoline quenching); assay type: binding; conditions: (CUG)10, 1 μM compound in HBS-N
Method: The benzo[g]quinoline moiety is fluorescent, with excitation and emission maxima at 362 nm and 439 nm respectively in methanol. Fluorescence titration binding measurements were performed on a Cary Eclipse fluorescence spectrophotometer using a 10 mm path-length semimicro quartz fluorescence cell with 400 μL sample holding capacity. Absorbance measurements were carried out on a UV-Visible spectrophotometer (Shimadzu, UV-1601PC) using a 1 mL (1 cm path-length) quartz cell. Spectroscopic grade anhydrous methanol used in the measurement of relative quantum yield of the 2-ethyl benzo[g]quinoline carboxylic acid was purchased from Alfa Aesar and was used without further purification. For these measurements, known procedures were used (Lee and Grissom, “Design, Synthesis, and Characterization of Fluorescent Cobalamin Analogues with High Quantum Efficiencies,” Org. Lett. 11:2499-2502 (2009); Joseph R. Lakowicz, Principles of Fluorescence Spectroscopy, 2nd edition (Kluwer Academic/Plenum Publishers, 1999), which are hereby incorporated by reference in their entirety). Briefly, RNA (10 μM stock) in HBS-N buffer was titrated into a solution of 1 μM compound in HBS-N. After each addition of RNA, ten minutes were allowed for equilibration before recording the change in fluorescence at 468.5 nm. Fluorescence units (“FU”) were then corrected for dilution and the FU after each addition was subtracted from the FU at zero RNA concentration to give AFU. Following saturation, AFU was plotted against RNA concentration using Origin 7 (OriginLab, Inc.), and fitted to a 1:1 Langmuir binding model to obtain apparent dissociation constants (Kn). […]
Selected equilibrium affinities for (CUG)10 were confirmed by fluorescence titration. The quantum yield of the ethylbenzo[g]quinoline carboxylic acid (compound 2), relative to quinine sulfate, was determined to be 0.64 (FIGS. 5A-F). […] Apparent KD values measured in this manner are consistent with those obtained by SPR (Table 6); that they are not identical to SPR-measured values likely results from the differing formats of the two methods. […]

[1] = biological target: (CUG)10 RNA (SEQ ID NO: 3); assay: SPR binding to immobilized biotinylated RNA
Method: (§1) SPR binding measurements were performed on a Biacore-X instrument (Biacore, Inc., Uppsala, Sweden) with two flow channels (FC1 and FC2). 5′-Biotinylated-RNA sequences, with a C6 linker separating the biotin label from the RNA (Integrated DNA Technologies Inc.) were immobilized on streptavidin (Rockland Immunochemicals) functionalized carboxylmethyl dextran coated sensor chips (CM5, G.E. Healthcare) using EDC/NHS (Advanced ChemTech) coupling chemistry. Filtered (0.2μ), degassed and autoclaved HBS-N buffer (0.01M Hepes, pH=7.4, 0.15 M NaCl) was employed as sample and as running buffer for all SPR experiments. A typical protocol for an experiment is as follows: A CM5 sensor chip was allowed to equilibrate to room temperature and then docked into the instrument. Following priming with running buffer, FC1 and FC2 were conditioned by manual injection of 20 μL aqueous NaOH (50 mM) at a flow rate of 30 μL/min. This was repeated 3 times followed by a wash command. Next, the carboxyl groups on the sensor chip surface in both flow cells were activated separately by injecting 60 μL of freshly prepared 1:1 mixture of EDC (0.4 M) and NHS (0.1 M) at a 5 μL/min flow rate followed by a wash. […] After washing, the surface was deactivated with 60 μL injection of ethanolamine (1M, pH=8.5) at 5 μL/min. The flow cells were primed, and the streptavidin surface in FC1 alone was blocked with 30 μL of biotin (20 μM in HBS-N) at 5 μL/min. The RNA (200 nM in running buffer, HBS-N) to be immobilized was unfolded by heating above its predicted melting temperature in a heated block for 2 min and then allowed to refold by cooling gradually to room temperature. The RNA was then immobilized in FC2 alone to response units ranging from 200-1000 RU using a 5 μL/min flow rate. Representative sensorgrams for the immobilization procedure is shown in FIGS. 2A-B. Two 20 μL aliquots of NaCl (0.5 M) were injected at a 30 μL/min flow rate to remove non-specifically bound RNA. The level of RNA immobilized was noted when the baseline was stable, usually after repeated buffer injection followed by a “prime” command. Binding measurements were performed by flowing various concentrations of the compounds to be analyzed over the immobilized RNA and recording the reference-subtracted (FC2−FC1) sensorgrams. For kinetic analysis, at least five sensorgrams corresponding to different concentrations of compound (usually ranging from 0.05-1 μM in HBS-N) were obtained using flow rates of either 60 μL/min or 30 μL/min. The experimental sensorgrams were globally fitted to a 1:1 binding equation (Biaevaluation software) to obtain association rates (ka) and dissociation rates ([…]) as well as equilibrium binding constants (KD). To measure the binding stoichiometry (n), the relations in equations (1-3) below were used: […]
(§2) where RUmax is the maximum resonance response unit at saturation, RURNA is the amount RU of RNA immobilized, n is the stoichiometry, MWcompound and MWRNA are molecular weights of compound and RNA respectively, and RUeq represents the resonance response at steady-state (equilibrium). The response units at equilibrium were subjected to Scatchard binding plots of (r/Cfree vs. r).
This technique allows the association and dissociation rates (ka and kd), equilibrium binding constants (KD), and the binding stoichiometry (n) to be measured in a label-free format (Liu and Wilson, “Quantitative Analysis of Small Molecule-nucleic Acid Interactions with a Biosensor Surface and Surface Plasmon Resonance Detection,” Methods Mol. Biol. 613:1-23 (2010), which is hereby incorporated by reference in its entirety).

[2] = system: (CCUG)10 RNA (SEQ ID NO: 4); assay: SPR binding to immobilized biotinylated RNA; conditions: (CCUG)10
Method: as §1, §2
(§3) The binding characteristics of compounds 3-11 were evaluated against pathogenic CUG^exp RNA and other RNA sequences by SPR. This technique allows the association and dissociation rates (ka and kd), equilibrium binding constants (KD), and the binding stoichiometry (n) to be measured in a label-free format (Liu and Wilson, “Quantitative Analysis of Small Molecule-nucleic Acid Interactions with a Biosensor Surface and Surface Plasmon Resonance Detection,” Methods Mol. Biol. 613:1-23 (2010), which is hereby incorporated by reference in its entirety). […]

[3] = system: CUG-CAG duplex ("Duplex") (SEQ ID NO: 6); assay: SPR binding to immobilized biotinylated RNA; conditions: Duplex
Method: as §1, §2, §3

[4] = system: (CAG)10 RNA (SEQ ID NO: 5); assay: SPR binding to immobilized biotinylated RNA
Method: as §1, §2, §3

mouse C2C12 myoblasts = assay: Cell permeability by fluorescence microscopy; assay type: cell-based; conditions: 12 h, 125 μM, intrinsic fluorescence
Method: For cell permeability studies, human fibroblasts or mouse myoblasts grown to 80% confluence were exposed to compounds for 12 hours in a 96 well tissue culture plate. After removal of the culture media (DMEM, with 10% FBS, 1% pen-strep (GIBCO)) the cells were washed twice with PBS to remove excess compounds. Cells were then imaged while in buffer under a fluorescence microscope (Olympus IX70) in the 96-well plate using a 460 nm emission filter.

[5] = system: HIV-1 FSS RNA (SEQ ID NO: 7); assay: SPR binding to immobilized biotinylated RNA
Method: as §1
as §2, with “r). […]” for “r).”
SPR and fluorescence titration experiments, performed using the protocol described in Examples 3 and 4 above, except using as the target a highly conserved RNA sequence responsible for regulating the production of the Gag-Pol polyprotein via a −1 ribosomal frameshift, which occurs along a “slippery sequence” in gag-pol mRNA (SEQ ID NO: 7). This “frameshift stimulatory sequence” (or “HIV-1 FSS”) consists of an upper stemloop and a lower stem, separated by a purine bulge in the most common types of HIV (FIG. 19). For the fluorescent titration experiments, the upper stemloop of SEQ ID NO: 7 was employed. Cell uptake and toxicity studies were carried out using human fibroblasts according to Example 5 above.

HSA^LR transgenic mice = assay: MBNL1-dependent splicing in mouse myotonic dystrophy model (RT-PCR, vastus muscle); assay type: in vivo; conditions: 40 mg/kg intraperitoneally once per day for 5 days
Method: Mouse handling and experimental procedures were conducted in accordance with the Association for Assessment and Accreditation of Laboratory Animal Care. […] Age- and gender-matched HSA^LR mice (12-16 weeks old) were injected intraperitoneally with 40 mg/kg of compounds or saline alone once per day for 5 days. Mice were sacrificed one day after the last injection, and vastus muscle was obtained for splicing analysis. RNA extraction, cDNA preparation, and RT-PCR were performed as described previously. The PCR products were electrophoresed on agarose gels for separation, and scanned with a laser fluorimager (Typhoon, GE Healthcare). Quantitative analysis of amplified products was performed by ImageQuant software (Molecular Dynamics). Differences between two groups were evaluated by unpaired Student's t-test. A critical test of a compound's performance is its ability to function in vivo. DM1 has several well-studied mouse models (Gomes-Pereira et al., “Myotonic Dystrophy Mouse Models: Towards Rational Therapy Development,” Trends Mol. Med. 17:506-517 (2011), which is hereby incorporated by reference in its entirety). Compound activity in the HSA^LR mouse model, in which transgenic mice carry a long CTG repeat inserted into the human skeletal actin (HSA) gene in skeletal muscle (Mankodi, “Myotonic Dystrophy in Transgenic Mice Expressing an Expanded CUG Repeat,” Science 289:1769-1772 (2000), which is hereby incorporated by reference in its entirety) was examined. […] They also display aberrant splicing of genes, including Clcn1 and Atp2a1, which are hallmarks of nuclear transcript sequestration.

| SMILES | apparent KD ((CUG)10 RNA) | apparent KD ([1]; SPR, (CUG)10) | Residence time (t1/2) for compound binding to RNA [2] [min] | Off-rates (koff) ([2]; SPR) [s⁻¹] | On-rates (kon) ([2]; SPR) [M⁻¹ s⁻¹] | Residence time (t1/2) for compound binding to RNA [3] [min] | Off-rates (koff) ([3]; SPR) [s⁻¹] | On-rates (kon) ([3]; SPR) [M⁻¹ s⁻¹] | Residence time (t1/2) for compound binding to RNA [4] [min] | Off-rates (koff) ([4]; SPR) [s⁻¹] | On-rates (kon) ([4]; SPR) [M⁻¹ s⁻¹] | cell membrane penetration / localization (mouse C2C12 myoblasts) | Residence time (t1/2) for compound binding to RNA [5] [min] | Off-rates (koff) ([5]; SPR) [s⁻¹] | On-rates (kon) ([5]; SPR) [M⁻¹ s⁻¹] | improvement of Clcn1 splicing (HSA^LR transgenic mice) | Residence time (t1/2) for compound binding to RNA ([1]; (CUG)10) [min] | Off-rates (koff) ([1]; SPR, (CUG)10) [s⁻¹] | On-rates (kon) ([1]; SPR, (CUG)10) [M⁻¹ s⁻¹] | sequence selectivity ([1]; SPR, CUG repeats versus other RNAs) |
| --- | --- | --- | --- | --- | --- | --- | --- | --- | --- | --- | --- | --- | --- | --- | --- | --- | --- | --- | --- | --- |
| C=CC[C@H](NC(=O)[C@@H]1CCCN1C(=O)c1cc2cc3ccccc3cc2nc1CC)C(=O)N[C@@H](CCCCN)C(=O)NCCCN [Compound 3] | No binding | no measurable affinity; also recorded: complete lack of binding | – | – | – | – | – | – | – | – | – | – | – | – | – | – | – | – | – | – |
| CCc1nc2cc3ccccc3cc2cc1C(=O)N[C@@H](CCCCN)C(=O)N[C@@H](C/C=C/C[C@H](NC(=O)[C@H](CCCCN)NC(=O)c1cc2cc3ccccc3cc2nc1CC)C(=O)N1CCC[C@H]1C(=O)NCCCN)C(=O)N1CCC[C@H]1C(=O)NCCCN [Compound 9] | – | reduced affinity | 4.262 | 0.00271 | 19900 | 6.2097 | 0.00186 | 24300 | 3.3575 | 0.00344 | 15700 | significantly less able to enter cells than compounds 4, 5, or 11 | 5.775 | 0.002 | 32300 | not | 4.0527 | 0.00285 | 24200 | no selectivity for CUG or CCUG repeats relative to duplex CUG-CAG or HIV-1 FSS RNAs |
